Measured values reported in PubChem BioAssay (NCI).
Several values for one entry are separate records, joined by “and”; a condition that tells them apart may be missing. Equal values may be shown once.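 Grown in 96-well plates, cells were treated for 48 hours with each compound at five concentrations. Insufficient inhibition: endpoint recorded as highest concentration tested. GI50 = concentration required for 50% inhibition of growth. TGI: total growth inhibition.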

How the values were obtained:
Experiment in all cases: inhibition of tumour cell growth, NCI panel, 48 h
A498 renal = test system: A498 renal
A549 NSCLC = test system: A549 NSCLC
EKVX NSCLC = test system: EKVX NSCLC
HCC-2998 colon = test system: HCC-2998 colon
HCT-116 colon = test system: HCT-116 colon
OVCAR-4 ovarian = test system: OVCAR-4 ovarian
OVCAR-8 ovarian = test system: OVCAR-8 ovarian
RXF 393 renal = test system: RXF 393 renal
SK-MEL-28 melanoma = test system: SK-MEL-28 melanoma
SW-620 colon = test system: SW-620 colon

SMILES | GI50 (A498 renal) | TGI (A498 renal) | GI50 (A549 NSCLC) | TGI (A549 NSCLC) | GI50 (EKVX NSCLC) | TGI (EKVX NSCLC) | GI50 (HCC-2998 colon) | TGI (HCC-2998 colon) | GI50 (HCT-116 colon) | TGI (HCT-116 colon) | GI50 (OVCAR-4 ovarian) | TGI (OVCAR-4 ovarian) | GI50 (OVCAR-8 ovarian) | TGI (OVCAR-8 ovarian) | GI50 (RXF 393 renal) | TGI (RXF 393 renal) | GI50 (SK-MEL-28 melanoma) | TGI (SK-MEL-28 melanoma) | GI50 (SW-620 colon) | TGI (SW-620 colon)
CCN(CC)CCOc1ccc(/C(=C(\Cl)c2ccccc2)c2ccccc2)cc1 | 6.96 µM and 2.32 µM | 13.7 µM and 10.1 µM | 2.92 µM and 4.32 µM | 9.57 µM and 15.3 µM | 5.74 µM and 3.44 µM | 13 µM and 17.3 µM | 2 µM and 2.4 µM | 7.35 µM and 6.41 µM | 2.03 µM and 1.49 µM | 7.14 µM and 3.07 µM | 5.31 µM and 3.14 µM | 11.3 µM and 11.6 µM | 7 µM and 4.65 µM | 14.3 µM and 18.6 µM | 0.955 µM and 1.49 µM | 2.46 µM and 3.03 µM | 1.07 µM and 1.79 µM | 2.21 µM and 3.47 µM | 1.11 µM and 1.74 µM | 2.56 µM and 3.73 µM
CC[CH2][Sn]([CH2]CC)([O]C(=O)c1cccnc1SC)[O][Sn]([CH2]CC)([CH2]CC)[O]C(=O)c1cccnc1SC | 0.246 µM | 0.629 µM | 3.2 µM | 6.24 µM | 0.699 µM | 2.85 µM | 0.642 µM | 1.92 µM | 0.452 µM | 1.48 µM | 1.03 µM | 2.34 µM | 0.599 µM | 1.92 µM | 0.0992 µM | 0.342 µM | 0.296 µM | 0.711 µM | 0.216 µM | 0.503 µM
FC(F)(F)c1cccc(Nc2nccc(-c3cnn4nc(-c5ccccc5)ccc34)n2)c1 | > 14 µM | > 25 µM | 5.36 µM | > 14.3 µM | > 21.2 µM | > 25 µM | 23.5 µM | > 25 µM | 5.92 µM | 14.8 µM | 5.18 µM | 10.3 µM | 6.54 µM | > 18.4 µM | 4.63 µM | 10 µM | 8.11 µM | > 20.4 µM | 8.65 µM | > 21.4 µM
O=C1Nc2c(C(F)(F)F)cccc2[C@]1(c1ccc(O)cc1)c1ccc(OC(F)(F)F)cc1 | 14.7 µM | 30 µM | 5.26 µM | 20 µM | 8.09 µM | 21.6 µM | 14 µM | 29.8 µM | 7.73 µM | 23.9 µM | 0.543 µM | 5.23 µM | 5.29 µM | 21.8 µM | 3.29 µM | 15.5 µM | 15 µM | 28.8 µM | 14.5 µM | 32.2 µM
CC(C)c1nc(CN(C)C(=O)N[C@H](C(=O)N[C@@H](Cc2ccccc2)C[C@H](O)[C@H](Cc2ccccc2)NC(=O)OCc2cncs2)C(C)C)cs1 | 19.1 µM | 43.2 µM | 23 µM | 65.5 µM | 4.11 µM | > 100 µM | 22.2 µM | 45.2 µM | 19.9 µM | 50.1 µM | 27.2 µM | > 92.1 µM | 36.3 µM | > 100 µM | 17.7 µM | 35.8 µM | 21.5 µM | 47.2 µM | 34.9 µM | > 100 µM
CC[C@@H]1C(=O)N(C)c2cnc(Nc3ccc(C(=O)NC4CCN(C)CC4)cc3OC)nc2N1C1CCCC1 | 0.0245 µM and 0.0246 µM | 0.146 µM and 0.368 µM | 0.00602 µM and < 0.0113 µM | > 10 µM and 3.5 µM | 0.0263 µM and 0.161 µM | > 10 µM and 21.5 µM | 0.00426 µM and < 0.01 µM | 1.42 µM and 0.506 µM | 0.00366 µM and < 0.01 µM | > 4.05 µM and 1.45 µM | 0.303 µM and 0.163 µM | 9.87 µM and 4.4 µM | 0.00414 µM | > 10 µM | 0.0047 µM and < 0.01 µM | 0.627 µM and 0.576 µM | – | 3.32 µM and 2.59 µM | 0.00299 µM and < 0.01 µM | > 10 µM and 3.1 µM
COc1ccc(-c2cc(=O)c3ccc(O)cc3o2)cc1OC | – | > 100 µM | – | > 100 µM | – | > 100 µM | – | > 100 µM | – | > 100 µM | – | > 100 µM | – | > 100 µM | – | 38.6 µM | – | > 100 µM | – | > 100 µM
O=c1[nH]ncc(Br)c1Br | 11.8 µM | 24 µM | 13.3 µM | 29.1 µM | 2.87 µM | 13.1 µM | 1.89 µM | 3.38 µM | 1.8 µM | 3.42 µM | 1.71 µM | 3.08 µM | 2.86 µM | 10.8 µM | 1.38 µM | 2.71 µM | 1.74 µM | 3.12 µM | 1.7 µM | 3.07 µM
Oc1c(CN2CCC(N3CCCCC3)CC2)cc(Cc2cc(CN3CCC(N4CCCCC4)CC3)c(O)c3ncccc23)c2cccnc12 | 5.02 µM | 18 µM | 1.61 µM | 5.75 µM | 0.57 µM | 15.5 µM | 1.19 µM | 6.15 µM | 0.725 µM | 7.17 µM | 0.435 µM | 13.6 µM | 1.83 µM | 12.3 µM | 1.94 µM | 10.2 µM | 1.24 µM | 5.77 µM | 0.726 µM | 15.1 µM
CN1CCN(C)C12C=c1ccccc1=CC21CC1 | – | > 100 µM | – | > 100 µM | – | > 100 µM | – | 30.4 µM | – | 56.9 µM | – | > 100 µM | – | 98 µM | – | > 92.6 µM | – | 43 µM | – | 48.3 µM
Brc1cccc(C=NC23CC4CC(CC(C4)C2)C3)c1 | – | > 100 µM | – | > 100 µM | – | > 100 µM | – | > 100 µM | – | > 100 µM | – | > 100 µM | – | > 100 µM | – | > 100 µM | – | > 100 µM | – | > 100 µM
Oc1ccc(CN2CCC(N3CCCCC3)CC2)c2cccnc12 | > 100 µM | > 100 µM | 6.68 µM | > 100 µM | 32.4 µM | > 100 µM | 64.2 µM | > 100 µM | 4.49 µM | > 100 µM | 24.2 µM | > 100 µM | 7.69 µM | > 100 µM | 11.7 µM | > 100 µM | 21.4 µM | > 100 µM | 17 µM | > 100 µM
N#CSc1c[nH]c2cccc(/C=C/C(=O)/C=C(/C=C/c3cccc4[nH]cc(SC#N)c34)OB(F)F)c12 | 2.01 µM | 6.97 µM | 0.991 µM | 10.2 µM | 0.916 µM | 5.81 µM | 2.59 µM | 6.89 µM | 0.244 µM | 0.742 µM | 0.338 µM | 3.95 µM | 0.355 µM | > 59.5 µM | 0.226 µM | 0.516 µM | 0.342 µM | 1.49 µM | 0.351 µM | 1.33 µM
